Source: patent US20220339209A1, “ISOLATION, IDENTIFICATION AND APPLICATION OF STREPTOCOCCUS SP. 121” (priority 2021, published 2022)

Legend:
[1] = test system: Shigella dysenteriae; assay: Filtering paper agar diffusion bacteriostatic test against Shigella dysenteriae; type: cell-based; details: 50 μL on 0.6 cm filter paper, extract 1 mg/10 μL, positive control 1 mg/mL, MH plate, 37° C., 16-20 h
[2] = test system: Klebsiella pneumoniae; assay: Filtering paper agar diffusion bacteriostatic test against Klebsiella pneumoniae; details: 50 μL on 0.6 cm filter paper, extract 1 mg/10 μL, positive control 1 mg/mL, MH plate, 37° C., 16-20 h

NC[C@H]1O[C@H](O[C@H]2[C@H](O)[C@@H](O[C@H]3O[C@H](CO)[C@@H](O)[C@H](N)[C@H]3O)[C@H](N)C[C@@H]2N)[C@H](O)[C@@H](O)[C@@H]1O [Kanamycin, kanamycin]
size of bacteriostatic ring, mean ([1]; mean of 3 measurements): 23.7 mm | size of bacteriostatic ring ([1]; the first time): 24 mm | size of bacteriostatic ring ([1]; the second time): 24 mm | size of bacteriostatic ring ([1]; the third time): 23 mm | size of bacteriostatic ring, mean ([2]; mean of 3 measurements): 19.7 mm | size of bacteriostatic ring ([2]; the first time): 20 mm | size of bacteriostatic ring ([2]; the second time): 18 mm | size of bacteriostatic ring ([2]; the third time): 21 mm
